≈ marks a conversion by molar mass, not a printed value. Read-outs that look alike come from different tables or passages of the source. Where a SMILES comes first, the peptide text is derived from it. Bridges are numbered along the chain shown (N, C = ends). [ ]: non-standard residue; d: D form. The star is where a group is joined. Val(Nα-amidino) = CC(C)[C@H](NC(=N)N)C(=O)*; Hyp = O=C(O)[C@@H]1C[C@@H](O)CN1; Pen = CC(C)(S)[C@H](N)C(=O)O; dDab = NCC[C@@H](N)C(=O)O; Dab = NCC[C@H](N)C(=O)O
Key:
human red blood cells = experiment: Haemolysis; assay type: cell-based; settings: PBS-washed human red blood cells; 1 h at 200 mg/liter, 37°C; OD 540 nm; versus 100% lysis control 2.5% Triton X-100; biological replicates
Method: To test their hemolytic potential, compounds were incubated in the presence of phosphate-buffered saline (PBS)–washed human red blood cells. After 1-hour incubation at 200 mg/liter and 37°C, the samples were centrifuged (3220g), the supernatants were diluted in Dulbecco’s PBS, and optical density at 540 nm was determined. The hemolysis induced by the compound was calculated versus a 100% lysis control prepared with 2.5% Triton X-100 (table S4A).

Plasma protein binding [1] = assay type: in vitro ADME, mouse; settings: mass balance method, ultrafiltration 30-kDa cutoff; pooled mouse plasma adjusted to pH 7.5; 10 mg/liter; 30 min at 37°C; biological replicates; read-out: Plasma protein binding (% bound) Mouse (converted)
Method: (§1) After ultrafiltration, protein binding was determined by subtracting the percentage of compound in ultrafiltrate from the total amount of compound in spiked plasma (table S4A).

[2] = Tolerability (single day, IV bolus q12h); assay type: in vivo, CD-1 mice; settings: for Tolerability (IV bolus, q12h): mice died: single day
Method: (§2) Two different study designs were used to determine the potential toxicity of these compounds, when given BID via intravenous bolus (injection) 12 hours apart to CD-1 mice. In the first type of study, male mice were dosed on a single day at three escalating dose levels (three mice per group), while the second type of study male mice (nine mice per group) were dosed for seven consecutive days with the same administration regimen (q12h). […] Detailed clinical observations were conducted up to at least 3 hours after the first daily dosing and up to at least 1 hour after the second daily dosing. In addition, the Irwin battery of tests was used to assess the mice neurobiological and physiological state during the single day study at 30, 60, 120, 180, and 240 min after the first administration. The following parameters were included in the observations: occurrence of abnormal gait, catalepsy, piloerection, abnormal respiration, increase or decrease in spontaneous activity, spontaneous activity following audible stimuli (tapping on side of cage), touch response, and body tonus. Any additional symptoms observed were also reported.

Plasma protein binding [3] = assay type: in vitro ADME, human; settings: mass balance method, ultrafiltration 30-kDa cutoff; pooled human plasma adjusted to pH 7.5; 10 mg/liter; 30 min at 37°C; biological replicates; read-out: Plasma protein binding (% bound) Human (converted)
Method: as §1

in vitro = assay type: cell-based; settings: human
Method: The cytotoxicity of compounds was determined by determining the number of viable cells using the Sigma Cell Counting Kit-8 (WST-8). HeLa cells were incubated at 37°C and 5% CO2 for 24 hours, after which the medium was replaced with fresh medium containing dilutions of compounds. […]

[4] = 7-day repeated dosing (IV bolus q12h); assay type: in vivo, CD-1 mice; settings: mice, intravenous BID 15 mg/kg per dose, seven consecutive days
Method: as §2

[5] = tested on: K. pneumoniae ATCC 43816 LptA Q62L mutant; experiment: microbe, parasite or virus in culture; settings: Table S9 panel
Summary of the method: (§3)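 MICs were determined by CLSI methodology. Serial passage studies were also run, and resistant mutants isolated from them were re-tested for MIC and then characterised by whole-genome sequencing.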

[6] = tested on: Klebsiella pneumoniae ATCC 43816 LapB mutant; experiment: microbe, parasite or virus in culture; settings: Table S9 panel; other mutation
Summary of the method: as §3

[7] = tested on: Escherichia coli ATCC 25922 KdsD mutant; experiment: microbe, parasite or virus in culture; settings: Table S9 panel; other mutation
Summary of the method: as §3

[8] = tested on: Klebsiella pneumoniae ATCC 43816 LptA I36N mutant; experiment: microbe, parasite or virus in culture; settings: Table S9 panel
Summary of the method: as §3

[9] = tested on: Klebsiella pneumoniae ATCC 43816 PglJ, PhnJ, ThiH mutant; experiment: microbe, parasite or virus in culture; settings: Table S9 panel; other mutation
Summary of the method: as §3

[10] = tested on: Klebsiella pneumoniae ATCC 43816 LptA I36S mutant; experiment: microbe, parasite or virus in culture; settings: Table S9 panel
Summary of the method: as §3

[11] = tested on: Klebsiella pneumoniae NCTC 13443 LptA I36S mutant; experiment: microbe, parasite or virus in culture; settings: Table S9 panel
Summary of the method: as §3

[12] = tested on: Klebsiella pneumoniae ATCC 43816 LptA L116Q mutant; experiment: microbe, parasite or virus in culture; settings: Table S9 panel
Summary of the method: as §3

[13] = tested on: Klebsiella pneumoniae NCTC 13443 YejM mutant; experiment: microbe, parasite or virus in culture; settings: Table S9 panel; other mutation
Summary of the method: as §3

[14] = tested on: Escherichia coli ATCC 25922 LptA E84D mutant; experiment: microbe, parasite or virus in culture; settings: Table S9 panel
Summary of the method: as §3

[15] = tested on: Klebsiella pneumoniae NCTC 13443 LpxC, LpxD mutant; experiment: microbe, parasite or virus in culture; settings: Table S9 panel; other mutation
Summary of the method: as §3

LptAmD33A = target: T1, LptAmD33A (Escherichia coli, UniProt P0ADV1, D33A); experiment: FP indirect (competition) binding assay; parameters: species or system E. coli
T1 construct: His6-GB1 (N, cleaved yes); made in house; host or cells: E. coli BL21 (DE3)
T1 sequence (P0ADV1 28-159 D33A): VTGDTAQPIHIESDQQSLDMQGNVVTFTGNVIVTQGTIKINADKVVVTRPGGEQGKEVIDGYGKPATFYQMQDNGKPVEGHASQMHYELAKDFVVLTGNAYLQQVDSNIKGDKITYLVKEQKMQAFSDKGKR
Method: (§4) Protein stocks were purified and concentrated in buffer 1 [50 mM Na-Pi (pH 7) and 150 mM NaCl] and, if necessary, diluted to desired concentrations using buffer 2 [50 mM Na-Pi (pH 7), 150 mM NaCl, and 0.05% Tween 20]. Peptide stocks and fluorescently labeled peptide stocks were made in buffer 2. Every serial dilution consisted of 24 wells, the first well with the highest concentrate and the last well (well 24) with the lowest. First, 50 μl of buffer 2 was added to the wells 2 to 24 of each serial dilution. Then, 100 μl of concentrated unlabeled peptide/protein in their respective buffers was added to the first well. Fifty microliters were taken from the first well and added to the second well for a 1:1 serial dilution and continued for the 24 wells. […] Plates were covered with adhesive seals and left to incubate overnight at 4°C before FP measurements the next day. Anisotropy was measured using the Tecan Safire2 plate reader using a 10-nm bandwidth and setting the excitation and emission wavelengths to 635 and 670 nm, respectively. The G-factor (G) was also determined empirically as 1.094 for the instrument and included in all the anisotropy calculations.
(§5) For the indirect binding assays, r was calculated in the same manner as the direct binding assays. […] The control was subtracted from r to yield r′. Data were fit to a sigmoidal interpolation model on GraphPad Prism 9, and an IC50 was generated for each unlabeled peptide or protein measured.

LptAmQ62L, D33A = target: T2, LptAmQ62L, D33A (Escherichia coli, UniProt P0ADV1, D33A/Q62L); experiment: FP indirect (competition) binding assay; parameters: species or system E. coli
T2 construct: His6-GB1 (N, cleaved yes); made in house; host or cells: E. coli BL21 (DE3)
T2 sequence (P0ADV1 28-159 D33A/Q62L): as the sequence (P0ADV1 28-159 D33A) above, with Q35L counted along it
Method: as §4, §5

Q: Which “Haemolysis % at 0.2 g/L” value (human red blood cells) does the source give for `CC[C@H](C)[C@H](NC(=O)[C@@H]1C[C@@H](O)CN1C(=O)[C@@H](N)C(C)C)C(=O)N[C@H](C(=O)N[C@@H](Cc1ccc(O)cc1)C(=O)N[C@@H]1C(=O)N[C@@H](CC(N)=O)C(=O)N[C@@H](CCCNC(=N)N)C(=O)N[C@@H](CCN)C(=O)N[C@@H]([C@@H](C)O)C(=O)N[C@H](CCN)C(=O)N[C@@H](CCCCN)C(=O)N[C@H](C(=O)N[C@@H](CCN)C(=O)N[C@@H](CCCNC(=N)N)C(=O)N[C@@H](Cc2ccc(O)cc2)C(=O)O)CSSC1(C)C)[C@@H](C)O` [Compound 6] (H-V[Hyp]ITY[Pen]NR[Dab]T[dDab]KC[Dab]RY-OH; disulfide 6-13) here?
A: 0%

Q: What about the fraction unbound at 30 min, 10 mg/liter (Plasma protein binding [1]) of the same compound?
A: 0.11

Q: And the “Tolerability (IV bolus, q12h): mice died” value ([2]; at 40 mg/kg/day q12h)?
A: 0/3

Q: And the fraction unbound at 30 min, 10 mg/liter (Plasma protein binding [3])?
A: 0.38

Q: What about the IC50 at 48 h (in vitro) of the same compound?
A: 1160 µM

Q: What about the “Tolerability in repeat dose safety study” value [4] of the same compound?
A: well tolerated with no adverse events or detectable kidney toxicity

Q: With `CC[C@H](C)[C@H](NC(=O)[C@@H]1C[C@@H](O)CN1C(=O)[C@@H](NC(=N)N)C(C)C)C(=O)N[C@H](C(=O)N[C@@H](Cc1ccc(O)cc1)C(=O)N[C@@H]1C(=O)N[C@@H](CC(N)=O)C(=O)N[C@@H](CCCNC(=N)N)C(=O)N[C@@H](CCN)C(=O)N[C@@H]([C@@H](C)O)C(=O)N[C@H](CCN)C(=O)N[C@@H](CCCCN)C(=O)N[C@H](C(=O)N[C@@H](CCN)C(=O)N[C@@H](CCCNC(=N)N)C(=O)N[C@@H](Cc2ccc(O)cc2)C(=O)O)CSSC1(C)C)[C@@H](C)O` [Compound 7] ({Val(Nα-amidino)}-[Hyp]ITY[Pen]NR[Dab]T[dDab]KC[Dab]RY-OH; disulfide 5-12) as the compound, how does the “Haemolysis % at 0.2 g/L” value (human red blood cells) read?
A: 0%

Q: And the fraction unbound at 30 min, 10 mg/liter (Plasma protein binding [1])?
A: 0.06

Q: What about the “MIC Klebsiella pneumoniae ATCC 43816 LptA Q62L (4x)” value [5] of the same compound?
A: 8 mg/L (≈ 4 µM)

Q: And the “MIC Klebsiella pneumoniae ATCC 43816 LapB (1x)” value [6]?
A: 0.5 mg/L (≈ 0.25 µM)

Q: What about the “MIC Escherichia coli ATCC 25922 KdsD (2x)” value [7] of the same compound?
A: 0.5 mg/L (≈ 0.25 µM)

Q: And the “MIC Klebsiella pneumoniae ATCC 43816 LptA I36N (1x)” value [8]?
A: 2 mg/L (≈ 0.999 µM)

Q: And the “MIC Klebsiella pneumoniae ATCC 43816 PglJ, PhnJ, ThiH (1x)” value [9]?
A: 0.5 mg/L (≈ 0.25 µM)

Q: What about the “MIC Klebsiella pneumoniae ATCC 43816 LptA I36S (1x)” value [10] of the same compound?
A: 2 mg/L (≈ 0.999 µM)

Q: And the “MIC Klebsiella pneumoniae NCTC 13443 LptA I36S (2x)” value [11]?
A: 8 mg/L (≈ 4 µM)

Q: What about the “MIC Klebsiella pneumoniae ATCC 43816 LptA L116Q (1x)” value [12] of the same compound?
A: 2 mg/L (≈ 0.999 µM)

Q: And the “MIC Klebsiella pneumoniae NCTC 13443 YejM (1x)” value [13]?
A: 2 mg/L (≈ 0.999 µM)

Q: What about the “MIC Escherichia coli ATCC 25922 LptA E84D (1x)” value [14] of the same compound?
A: 1 mg/L (≈ 0.5 µM)

Q: And the “MIC Klebsiella pneumoniae NCTC 13443 LpxC, LpxD (1x)” value [15]?
A: 1 mg/L (≈ 0.5 µM)

Q: And the “Tolerability (IV bolus, q12h): mice died” value ([2]; at 30 mg/kg/day q12h)?
A: 0/3

Q: What about the “Tolerated dose, intravenous BID” value ([2]; mice, intravenous, twice a day (q12h)) of the same compound?
A: up to 30 mg/kg per day

Q: What about the fraction unbound at 30 min, 10 mg/liter (Plasma protein binding [3]) of the same compound?
A: 0.19

Q: What about the IC50 (LptAmD33A) of the same compound?
A: 0.0323 ± 0.0034 µM

Q: What about the Ki (LptAmD33A) of the same compound?
A: 0.0234 ± 0.0025 µM

Q: And the IC50 (LptAmQ62L, D33A)?
A: 0.0232 ± 0.01 µM

Q: What about the Ki (LptAmQ62L, D33A) of the same compound?
A: 0.017 ± 0.0073 µM

Q: What about the IC50 at 48 h (in vitro) of the same compound?
A: 456 µM

Q: What about the “Tolerability in repeat dose safety study” value [4] of the same compound?
A: well tolerated with no adverse events or detectable kidney toxicity

— publication PMC10208570, “Peptidomimetic antibiotics disrupt the lipopolysaccharide transport bridge of drug-resistant Enterobacteriaceae” (Science Advances, 2023)
